Measured values published in patent publication US8802700B2 (Vertex Pharmaceuticals Incorporated, priority 2010, dated 2014).

Target: T1, ΔF508-CFTR (Homo sapiens, UniProt P13569, DEL508-508)
T1 construct: expressed in transfected cells
Experiment: Membrane potential optical assay (FRET voltage-sensor dyes, VIPR), identification of potentiator compounds
Type: cell-based
Conditions: Table 3; assay not given
Summary of the method: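 Potentiator screen measured membrane potential via FRET between CC2-DMPE donor and DiSBAC2(3), read on VIPR II. Compound went in with the first addition of chloride-free gluconate bath; cells were ΔF508-CFTR-expressing NIH3T3 mouse fibroblasts, temperature-corrected at 27 °C for 24 h.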

T1 sequence (P13569 with tags, fused parts or gaps DEL508-508): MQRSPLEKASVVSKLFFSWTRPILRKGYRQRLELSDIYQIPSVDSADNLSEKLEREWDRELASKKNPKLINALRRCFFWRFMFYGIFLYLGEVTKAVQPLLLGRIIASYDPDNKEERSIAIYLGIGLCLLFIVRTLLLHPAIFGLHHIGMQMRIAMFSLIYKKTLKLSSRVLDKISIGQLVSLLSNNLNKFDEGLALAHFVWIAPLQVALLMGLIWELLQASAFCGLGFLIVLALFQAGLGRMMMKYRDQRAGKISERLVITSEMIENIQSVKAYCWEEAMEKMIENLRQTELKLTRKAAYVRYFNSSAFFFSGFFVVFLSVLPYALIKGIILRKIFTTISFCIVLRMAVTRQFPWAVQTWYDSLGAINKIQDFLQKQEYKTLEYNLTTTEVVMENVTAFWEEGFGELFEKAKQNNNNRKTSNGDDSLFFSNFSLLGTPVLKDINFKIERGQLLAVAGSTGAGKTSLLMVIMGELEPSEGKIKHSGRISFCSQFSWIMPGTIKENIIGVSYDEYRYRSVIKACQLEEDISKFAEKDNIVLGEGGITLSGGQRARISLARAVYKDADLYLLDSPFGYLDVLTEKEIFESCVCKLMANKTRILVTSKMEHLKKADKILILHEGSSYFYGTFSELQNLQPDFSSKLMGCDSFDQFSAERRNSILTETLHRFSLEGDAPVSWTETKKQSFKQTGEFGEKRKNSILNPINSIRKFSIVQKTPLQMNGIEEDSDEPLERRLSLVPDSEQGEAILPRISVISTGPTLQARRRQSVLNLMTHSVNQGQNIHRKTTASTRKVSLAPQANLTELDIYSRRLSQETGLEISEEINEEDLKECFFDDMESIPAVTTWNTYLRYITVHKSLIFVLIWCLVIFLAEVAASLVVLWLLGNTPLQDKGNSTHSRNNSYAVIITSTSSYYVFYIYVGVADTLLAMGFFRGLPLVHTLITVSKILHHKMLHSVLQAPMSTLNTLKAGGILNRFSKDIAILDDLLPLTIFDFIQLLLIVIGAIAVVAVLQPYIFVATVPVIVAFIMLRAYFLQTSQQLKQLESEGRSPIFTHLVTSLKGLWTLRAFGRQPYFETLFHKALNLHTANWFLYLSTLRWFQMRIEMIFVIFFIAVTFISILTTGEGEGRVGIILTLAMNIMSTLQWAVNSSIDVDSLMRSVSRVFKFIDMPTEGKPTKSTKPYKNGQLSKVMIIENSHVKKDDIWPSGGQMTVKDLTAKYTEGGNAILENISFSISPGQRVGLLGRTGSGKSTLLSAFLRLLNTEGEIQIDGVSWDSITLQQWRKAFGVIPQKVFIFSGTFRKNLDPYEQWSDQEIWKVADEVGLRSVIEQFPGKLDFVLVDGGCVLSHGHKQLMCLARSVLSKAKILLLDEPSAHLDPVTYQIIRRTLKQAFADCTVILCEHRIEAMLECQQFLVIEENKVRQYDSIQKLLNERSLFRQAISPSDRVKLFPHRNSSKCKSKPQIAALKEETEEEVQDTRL

EC50 [µM] | Structure (SMILES)
< 10 | CC(C)(C)c1cc(Cl)c(NC(=O)c2c[nH]c3ccccc3c2=O)cc1O [Compound 291, N-(2-chloro-5-hydroxy-4-tert-butyl-phenyl)-4-oxo-1H-quinoline-3-carboxamide]
< 10 | CCCc1ccc(N)cc1NC(=O)c1c[nH]c2ccccc2c1=O [Compound 41, N-(5-amino-2-propyl-phenyl)-4-oxo-1H-quinoline-3-carboxamide]

Same assay, conditions: Table 3; assay not given; read-out: % Activity (% Efficacy, relative efficacy)

Emax [%] | Structure (SMILES)
25 to 100 | CCOC(=O)Nc1cc(NC(=O)c2c[nH]c3ccccc3c2=O)ccc1C(C)(C)C [Compound 127, [5-[(4-oxo-1H-quinolin-3-yl)carbonylamino]-2-tert-butyl-phenyl]aminoformic acid ethyl ester]
25 to 100 | CC(C)(C)c1cc(F)c(NC(=O)c2c[nH]c3cccc(F)c3c2=O)cc1O [Compound 610, 5-fluoro-N-(2-fluoro-5-hydroxy-4-tert-butyl-phenyl)-4-oxo-1H-quinoline-3-carboxamide]
25 to 100 | CC(C)(C)c1cc(Cl)c(NC(=O)c2c[nH]c3ccccc3c2=O)cc1O [Compound 291, N-(2-chloro-5-hydroxy-4-tert-butyl-phenyl)-4-oxo-1H-quinoline-3-carboxamide]
25 to 100 | CCc1cc(Br)ccc1NC(=O)c1c[nH]c2ccccc2c1=O [Compound 263, N-(4-bromo-2-ethyl-phenyl)-4-oxo-1H-quinoline-3-carboxamide]
25 to 100 | CCCc1ccc(N)cc1NC(=O)c1c[nH]c2ccccc2c1=O [Compound 41, N-(5-amino-2-propyl-phenyl)-4-oxo-1H-quinoline-3-carboxamide]
< 25 | CCOc1cccc2c(=O)c(C(=O)Nc3cc(O)c(C(C)(C)C)cc3F)c[nH]c12 [Compound 526, 8-ethoxy-N-(2-fluoro-5-hydroxy-4-tert-butyl-phenyl)-4-oxo-1H-quinoline-3-carboxamide]
25 to 100 | CCc1cc2cc[nH]c2cc1NC(=O)c1c[nH]c2ccccc2c1=O [Compound 351, N-(5-ethyl-1H-indol-6-yl)-4-oxo-1H-quinoline-3-carboxamide]
25 to 100 | CCc1ccc(NC(=O)OC)cc1NC(=O)c1c[nH]c2ccccc2c1=O [Compound 249, [4-ethyl-3-[(4-oxo-1H-quinolin-3-yl)carbonylamino]phenyl]aminoformic acid methyl ester]
25 to 100 | O=C(Nc1ccccc1-c1cc(Cl)ccc1Cl)c1c[nH]c2ccccc2c1=O [Compound 213, N-[2-(2,5-dichlorophenyl)phenyl]-4-oxo-1H-quinoline-3-carboxamide]
25 to 100 | CC(C)(C)c1cc(C(C)(C)C)c(NC(=O)c2c[nH]c3ccccc3c2=O)c(O)c1O [Compound 220, N-(2,3-dihydroxy-4,6-ditert-butyl-phenyl)-4-oxo-1H-quinoline-3-carboxamide]
< 25 | O=C(Nc1ccccn1)c1c[nH]c2ccccc2c1=O [Compound 155, 4-oxo-N-(2-pyridyl)-1H-quinoline-3-carboxamide]
25 to 100 | COC(=O)NCC(C)(C)c1ccc(NC(=O)c2c[nH]c3ccccc3c2=O)cc1 [Compound 323, [2-Methyl-2-[4-[(4-oxo-1H-quinolin-3-yl)carbonylamino]phenyl]-propyl]aminoformic acid methyl ester]
25 to 100 | O=C(Nc1ccc2c(c1)NCCO2)c1c[nH]c2ccccc2c1=O [Compound 105, 1,4-dihydro-N-(3,4-dihydro-2H-benzo[b][1,4]oxazin-6-yl)-4-oxoquinoline-3-carboxamide]
> 100 | Cc1cc(N2CCCC2)ccc1NC(=O)c1c[nH]c2ccccc2c1=O [Compound 615, N-(2-methyl-4-pyrrolidin-1-yl-phenyl)-4-oxo-1H-quinoline-3-carboxamide]
25 to 100 | O=C(Nc1ccc2cn[nH]c2c1)c1c[nH]c2ccccc2c1=O [Compound 284, N-(1H-indazol-6-yl)-4-oxo-1H-quinoline-3-carboxamide]
25 to 100 | CC(C)(C)c1ccc(NC(=O)c2c[nH]c3ccccc3c2=O)cc1N1CCCC1 [Compound 707, 4-oxo-N-(3-pyrrolidin-1-yl-4-tert-butyl-phenyl)-1H-quinoline-3-carboxamide]
25 to 100 | CC(C)(C)c1ccccc1Oc1ccccc1NC(=O)c1c[nH]c2ccccc2c1=O [Compound 178, 4-oxo-N-[2-(2-tert-butylphenoxy)phenyl]-1H-quinoline-3-carboxamide]
25 to 100 | CC(C)(C)c1ccccc1NC(=O)c1c[nH]c2ccccc2c1=O [Compound 90, 4-oxo-N-(2-tert-butylphenyl)-1H-quinoline-3-carboxamide]
25 to 100 | CC(C)c1ccc(NC(=O)c2c[nH]c3ccccc3c2=O)cc1N(C)C [Compound 117, N-(3-dimethylamino-4-isopropyl-phenyl)-4-oxo-1H-quinoline-3-carboxamide]
25 to 100 | O=C(Nc1ccc(C(F)(F)F)cc1)c1c[nH]c2ccccc2c1=O [Compound 236, 4-oxo-N-[4-(trifluoromethyl)phenyl]-1H-quinoline-3-carboxamide]
< 25 | O=C(Nc1ccc2ncccc2c1)c1c[nH]c2ccccc2c1=O [Compound 280, 4-oxo-N-(6-quinolyl)-1H-quinoline-3-carboxamide]

Second part, the molecule before the results:

Structure (SMILES) | Emax [%]
CCOc1ccccc1-c1ccc(CN)cc1NC(=O)c1c[nH]c2ccccc2c1=O [Compound 163, 4-Oxo-1,4-dihydro-quinoline-3-carboxylic acid (4-aminomethyl-2′-ethoxy-biphenyl-2-yl)-amide] | 25 to 100
O=C(Nc1cccc(S(=O)(=O)N2CCCCC2)c1)c1c[nH]c2ccccc2c1=O [Compound 442, 4-oxo-N-[3-(1-piperidylsulfonyl)phenyl]-1H-quinoline-3-carboxamide] | < 25
CCCCc1ccc(NC(=O)c2c[nH]c3ccccc3c2=O)cc1 [Compound 324, N-(4-butylphenyl)-4-oxo-1H-quinoline-3-carboxamide] | 25 to 100
O=C(Nc1ccc2ccccc2n1)c1c[nH]c2ccccc2c1=O [Compound 19, 4-oxo-N-(2-quinolyl)-1H-quinoline-3-carboxamide] | < 25
Cn1cnnc1-c1ccc(NC(=O)c2c[nH]c3ccccc3c2=O)cc1 [Compound 301, N-[4-(4-methyl-4H-1,2,4-triazol-3-yl)phenyl]-4-oxo-1H-quinoline-3-carboxamide] | < 25
O=C(Nc1ccc(N2CCC[C@H]2C(=O)O)cc1C(F)(F)F)c1c[nH]c2ccccc2c1=O [Compound 567, (S)-1-[4-[(4-oxo-1H-quinolin-3-yl)carbonylamino]-3-(trifluoromethyl)phenyl]pyrrolidine-2-carboxylic acid] | 25 to 100
Cc1cccc2[nH]cc(C(=O)Nc3ccc(N4[C@H](C)CC[C@H]4C)cc3C(F)(F)F)c(=O)c12 [Compound 539, N-(4-((2R,5R)-2,5-dimethylpyrrolidin-1-yl)-2-(trifluoromethyl)phenyl)-5-methyl-4-oxo-1,4-dihydroquinoline-3-carboxamide] | 25 to 100
COc1cc(N2CCCC2)ccc1NC(=O)c1c[nH]c2ccccc2c1=O [Compound 675, N-(2-methoxy-4-pyrrolidin-1-yl-phenyl)-4-oxo-1H-quinoline-3-carboxamide] | 25 to 100
O=C(Nc1ccc2cc(C(F)(F)F)[nH]c2c1)c1c[nH]c2ccc(F)cc2c1=O [Compound 495, 6-fluoro-4-oxo-N-[2-(trifluoromethyl)-1H-indol-6-yl]-1H-quinoline-3-carboxamide] | 25 to 100
O=C(Nc1ccccc1-c1nc(-c2ccc(Cl)cc2)no1)c1c[nH]c2ccccc2c1=O [Compound 102, N-[2-[3-(4-chlorophenyl)-1,2,4-oxadiazol-5-yl]phenyl]-4-oxo-1H-quinoline-3-carboxamide] | 25 to 100
O=C(Nc1cccc2cccnc12)c1c[nH]c2ccccc2c1=O [Compound 241, 4-oxo-N-(8-quinolyl)-1H-quinoline-3-carboxamide] | 25 to 100
COc1cccc(-c2ccccc2NC(=O)c2c[nH]c3ccccc3c2=O)c1F [Compound 363, N-[2-(2-fluoro-3-methoxy-phenyl)phenyl]-4-oxo-1H-quinoline-3-carboxamide] | > 100
Cc1cccc2[nH]cc(C(=O)Nc3ccc(N4CCC(C)C4)cc3C(F)(F)F)c(=O)c12 (centres unmarked) [Compound 546, 5-methyl-N-[4-(3-methylpyrrolidin-1-yl)-2-(trifluoromethyl)phenyl]-4-oxo-1H-quinoline-3-carboxamide] | 25 to 100
O=C(Nc1cc(NS(=O)(=O)CCN2CCOCC2)cc(C(F)(F)F)c1)c1c[nH]c2ccccc2c1=O [Compound 272, N-[3-(2-morpholinoethylsulfonylamino)-5-(trifluoromethyl)phenyl]-4-oxo-1H-quinoline-3-carboxamide] | 25 to 100
O=C(Nc1cc(O)c(C23CC4CC(CC(C4)C2)C3)cc1F)c1cnc2ccccc2c1O [Compound 395, N-[4-(1-adamantyl)-2-fluoro-5-hydroxy-phenyl]-4-hydroxy-quinoline-3-carboxamide] | 25 to 100
O=C(Nc1ccc(OC(F)F)cc1)c1c[nH]c2ccccc2c1=O [Compound 360, N-[4-(difluoromethoxy)phenyl]-4-oxo-1H-quinoline-3-carboxamide] | 25 to 100
O=C(Nc1ccccc1-c1ccc(F)c(F)c1)c1c[nH]c2ccccc2c1=O [Compound 76, N-[2-(3,4-difluorophenyl)phenyl]-4-oxo-1H-quinoline-3-carboxamide] | 25 to 100
N#Cc1cccc(-c2ccccc2NC(=O)c2c[nH]c3ccccc3c2=O)c1 [Compound 83, N-[2-(3-cyanophenyl)phenyl]-4-oxo-1H-quinoline-3-carboxamide] | 25 to 100
O=C(Nc1cc2[nH]ccc2cc1-c1ccccc1)c1c[nH]c2ccccc2c1=O [Compound 158, 4-Oxo-N-(5-phenyl-1H-indol-6-yl)-1H-quinoline-3-carboxamide] | 25 to 100
O=C(Nc1ccccc1-c1ccc(F)cc1)c1c[nH]c2ccccc2c1=O [Compound 182, N-[2-(4-fluorophenyl)phenyl]-4-oxo-1H-quinoline-3-carboxamide] | 25 to 100
Cc1ccc2[nH]cc(C(=O)Nc3ccc(N4[C@H](C)CC[C@H]4C)cc3C(F)(F)F)c(=O)c2c1 [Compound 569, N-(4-((2R,5R)-2,5-dimethylpyrrolidin-1-yl)-2-(trifluoromethyl)phenyl)-6-methyl-4-oxo-1,4-dihydroquinoline-3-carboxamide] | 25 to 100
